Values quoted from earlier work in patent US20070281020A1, “PHARMACEUTICAL COMPOSITIONS FOR SUSTAINED RELEASE OF PHENYLEPHRINE” (priority 2006, published 2007).

Conditions: active metabolite of loratadine

Compound: Clc1ccc2c(c1)CCc1cccnc1C2=C1CCNCC1 [desloratadine]
- half-life (t1/2): 15 to 19 h
